Assay results: patent US20040082605A1, “Use” (priority 2001, published 2004)

Tested on: gastric (corpus) ulcers induced by indomethacin
Test: Indomethacin induced gastric ulcer in rats, stomach examined macroscopically
Assay type: in vivo
Details: male rats; for Median number of gastric (corpus) ulcers induced by indomethacin: Ulcer furrows / Median number of gastric (corpus) ulcers induced by indomethacin: Pinhead ulcers: stomach removed 5 h after indomethacin; for Median number of gastric (corpus) ulcers induced by indomethacin: Ulcer furrows: furrows >3 mm; for Median number of gastric (corpus) ulcers induced by indomethacin: Pinhead ulcers: pinhead = diameter 3 mm or less; for Effect against gastric ulcers induced by indomethacin: oral dosing 1 h before indomethacin 20 mg/kg orally, result in words
Protocol: Groups of […] male rats were given oral doses of vehicle, 2,3-dimethyl-8-(2-ethyl-6-methylbenzylamino)-imidazo[1,2-a]pyridine-6-carboxamide(0.3, 1, 3 and 10 μmol/kg) or ranitidine (10 μmol/kg). Indomethacin 20 mg/kg, orally) was given 1 h after dosing. Stomach was removed 5 h after indomethacin and examined macroscopically Indomethacin induced ulcers in the corpus only, rumen and anthrum were unaffected. Ulcers in the corpus were classified as pinhead (diameter 3 mm or less) or furrows (>3 mm).

[1] = oral dose 0.3 μmol/kg 1 h before indomethacin 20 mg/kg orally
[2] = oral dose 1 μmol/kg 1 h before indomethacin 20 mg/kg orally
[3] = oral dose 3 μmol/kg 1 h before indomethacin 20 mg/kg orally
[4] = oral dose 10 μmol/kg 1 h before indomethacin 20 mg/kg orally
[5] = oral doses 0.3, 1, 3 and 10 μmol/kg

| SMILES | Median number of gastric (corpus) ulcers induced by indomethacin: Ulcer furrows [1] | Median number of gastric (corpus) ulcers induced by indomethacin: Pinhead ulcers [1] | Median number of gastric (corpus) ulcers induced by indomethacin: Ulcer furrows [2] | Median number of gastric (corpus) ulcers induced by indomethacin: Pinhead ulcers [2] | Median number of gastric (corpus) ulcers induced by indomethacin: Ulcer furrows [3] | Median number of gastric (corpus) ulcers induced by indomethacin: Pinhead ulcers [3] | Median number of gastric (corpus) ulcers induced by indomethacin: Ulcer furrows [4] | Median number of gastric (corpus) ulcers induced by indomethacin: Pinhead ulcers [4] | Dose at which the decrease in pinhead ulcers and ulcer furrows was maximal [5] | Dose from which the decrease in pinhead ulcers and ulcer furrows was statistically significant [5] | Effect against gastric ulcers induced by indomethacin |
| --- | --- | --- | --- | --- | --- | --- | --- | --- | --- | --- | --- |
| CCc1cccc(C)c1CNc1cc(C(N)=O)cn2c(C)c(C)nc12 [2,3-dimethyl-8-(2-ethyl-6-methylbenzylamino)-imidazo[1,2-a]pyridine-6-carboxamide] | 8 | 5 | 9 | 5 | 1 | 2 | 0 | 0 | 10 µmol/kg | 3 µmol/kg | protective effect |
| CNC(=C[N+](=O)[O-])NCCSCc1ccc(CN(C)C)o1 [Ranitidine, ranitidine, reference compound] | – | – | – | – | – | – | 11 | 7 | – | – | no effect |
